{"source": "patent US8277807B2", "about": "“Pharmaceutical combinations” (Astex Therapeutics Limited, priority 2006, dated 2012)", "key": {"[1]": {"target": "T1, Human Hsp90α N-terminal domain (Homo sapiens, UniProt P07900)", "T1 construct": "Cloning, expression, and purification of the Human Hsp90α N-terminal domain were performed according to published methods; made in house", "assay": "Isothermal titration calorimetry (ITC) binding to Hsp90", "conditions": "25 mM Tris, 100 mM NaCl, 1 mM MgCl2, 1 mM TCEP, 5% DMSO, pH 7.4", "description": "The ability of the compounds for use in the combinations of the invention to bind to human Hsp90 proteins was determined using isothermal titration calorimetry.\nIsothermal titration calorimetry (ITC) experiments were performed with a VP-ITC titration calorimeter (Microcal Inc., Northampton, Mass., USA). […] All solutions were filtered and degassed prior to a titration being carried out. The enthalpy change resulting from each injection of ligand was obtained through integration of the calorimetric signal. Data were analysed using Origin 7.0 (Microcal Software Inc., Northampton, Mass.). Heats of dilution were estimated using the final injections of each individual titration and subtracted before data fitting. Different ITC experimental formats were employed in order to obtain compound dissociation constants (Kd's) over a wide range of affinities. […] In this type of experiment the stoichiometry parameter (N) was locked at 1 for data fitting."}, "[2]": {"assay": "Solid-state stability of L-lactate crystal forms (XRPD)", "type": "physicochemical", "conditions": "in air; 40° C. and 75% RH where stated", "excerpt": "Samples for X-ray powder diffraction (XRPD) data collection were gently ground by marble mortar and loaded into a crystallographic capillary (from Hampton Research, Quartz or Glass Type 10, 0.4 or 0.7 mm diameter). Diffraction patterns were collected at room temperature using CuKα radiation (λ=1.5418 Å) from a Rigaku rotating anode RU3HR, Osmic blue confocal optics, ¼ c goniometer and a Rigaku HTC image plate detector. 2D Images were collected while spinning φ axis with a detector to crystal distance of 250 mm. Data collection was controlled by CrystalClear software and 2D images were converted to 1D plot (20 vs. Intensity) by Datasqueeze (intensity averaged over the azimuthal angle 0<χ<360° for 2θ range 3-30° in 0.02° steps). In house program AstexXRPD was used for manipulation and visualisation of 1D XRPD patterns."}, "APL patients": {"test_system": "APL patients", "conditions": "in vivo; cited from earlier work"}, "HCT116 cell line": {"test_system": "HCT116 cell line", "assay": "Anti-proliferative activity, Alamar Blue assay", "type": "cell-based", "conditions": "Homo sapiens, HCT-116, 72 h, read-out: IC50 value against the HCT116 cell line", "description": "The anti-proliferative activities of compounds for use in the combinations of the invention can be determined by measuring the ability of the compounds to inhibition of cell growth in a number of cell lines such as the human colon cancer cell line HCT116. […] The method is based on the ability of viable cells to reduce resazurin to its fluorescent product resorufin. […] The number of viable cells is determined by Alamar Blue assay as before. Cell lines can be obtained from the ECACC (European Collection of cell Cultures)."}, "PKA": {"test_system": "PKA", "conditions": "data published 2002; read-out: IC50, inhibition of PKA; cited from earlier work"}, "PKG": {"test_system": "PKG", "conditions": "data published 2002; read-out: IC50, inhibition of PKG; cited from earlier work"}, "PKC": {"test_system": "PKC", "conditions": "data published 2002; read-out: IC50, inhibition of PKC; cited from earlier work"}, "OVCAR-3 tumour cells": {"test_system": "OVCAR-3 tumour cells", "conditions": "concentrations of 50 and 100 microM; PKB amplified; cited from earlier work"}, "[3]": {"test_system": "P-glycoprotein-overexpressing subline of CCRF-CEM", "conditions": "subline of leukemic cell line CCRF-CEM; Chou et al. 1998; read-out: IC50 against P-glycoprotein-overexpressing subline; cited from earlier work"}, "[4]": {"assay": "Salt properties of the L-lactate of compound (1)", "type": "physicochemical"}}, "note": "Counter-ions that a name gives are not always drawn."}
{"molecule": "CC(C)c1cc(C(=O)N2Cc3ccc(CN4CCN(C)CC4)cc3C2)c(O)cc1O", "note": "[Example 55, (2,4-dihydroxy-5-isopropyl-phenyl)-[5-(4-methyl-piperazin-1-ylmethyl)-1,3-dihydro-isoindol-2-yl]-methanone]", "values": [{"measurement": "Kd", "setting": "[1]", "value": "< 0.1", "unit": "µM"}]}
{"molecule": "CC(C)c1cc(C(=O)N2Cc3ccc(CN4CCN(C)CC4)cc3C2)c(O)cc1O.C[C@H](O)C(=O)O", "note": "[Form FL3, (2,4-dihydroxy-5-isopropyl-phenyl)-[5-(4-methyl-piperazin-1-ylmethyl)-1,3-dihydro-isoindol-2-yl]-methanone L-lactate]", "values": [{"measurement": "stability of crystal form", "setting": "[2]", "value": "transforms in air into form FL1"}]}
{"molecule": "CC1=C(/C=C/C(C)=C/C=C/C(C)=C/C(=O)O)C(C)(C)CCC1", "note": "[Tretinoin, all-trans retinoic acid]", "values": [{"measurement": "remissions in APL patients", "setting": "APL patients", "value": "64-100%"}]}
{"molecule": "CC(C)c1cc(C(=O)N2Cc3ccccc3C2)c(O)cc1O", "note": "[Example 5, (1,3-Dihydro-1H-isoindol-2-yl)-(2,4-dihydroxy-5-isopropyl-phenyl)-methanone]", "values": [{"measurement": "IC50", "setting": "HCT116 cell line", "value": "< 1", "unit": "µM"}]}
{"molecule": "CC(C)c1cc(C(=O)N2Cc3ccc(C(=O)N4CCNCC4)cc3C2)c(O)cc1O", "note": "[Example 54, (2,4-dihydroxy-5-isopropyl-phenyl)-[5-(piperazine-1-carbonyl)-1,3-dihydro-isoindol-2-yl]-methanone hydrochloride]", "values": [{"measurement": "IC50", "setting": "HCT116 cell line", "value": "< 1", "unit": "µM"}]}
{"molecule": "CC(C)c1cc(C(=O)N2Cc3ccc(CN4CCN(C)CC4)cc3C2)c(O)cc1O.C[C@H](O)C(=O)O", "note": "[Form FL1, (2,4-dihydroxy-5-isopropyl-phenyl)-[5-(4-methyl-piperazin-1-ylmethyl)-1,3-dihydro-isoindol-2-yl]-methanone L-lactate]", "values": [{"measurement": "stability of crystal form", "setting": "[2]", "value": "stable in air and at 40 °C and 75% RH for at least one month"}]}
{"molecule": "O=S(=O)(NCCNCC=C(c1ccccc1)c1ccccc1)c1cccc2cnccc12", "note": "[NL-71-101]", "values": [{"measurement": "IC50", "setting": "PKA", "value": 9, "unit": "µM"}, {"measurement": "IC50", "setting": "PKG", "value": 36, "unit": "µM"}, {"measurement": "IC50", "setting": "PKC", "value": 104, "unit": "µM"}, {"measurement": "Apoptosis in OVCAR-3 tumour cells", "setting": "OVCAR-3 tumour cells", "value": "induced apoptosis"}]}
{"molecule": "CC(C)c1cc(C(=O)N2Cc3ccc(CN4CCN(C)CC4)cc3C2)c(O)cc1O.C[C@H](O)C(=O)O", "note": "[form FL2, (2,4-dihydroxy-5-isopropyl-phenyl)-[5-(4-methyl-piperazin-1-ylmethyl)-1,3-dihydro-isoindol-2-yl]-methanone L-lactate]", "values": [{"measurement": "stability of crystal form", "setting": "[2]", "value": "stable in air"}]}
{"molecule": "C/C1=C/C[C@@H](/C(C)=C/c2csc(C)n2)OC(=O)C[C@H](O)C(C)(C)C(=O)[C@H](C)[C@@H](O)[C@@H](C)CCC1", "note": "[desoxyepothilone B]", "values": [{"measurement": "IC50", "setting": "[3]", "value": 0.017, "unit": "µM"}]}
{"molecule": "CC(C)c1cc(C(=O)N2Cc3ccc(CN4CCN(C)CC4)cc3C2)c(O)cc1O.C[C@H](O)C(=O)O", "note": "[(2,4-dihydroxy-5-isopropyl-phenyl)-[5-(4-methyl-piperazin-1-ylmethyl)-1,3-dihydro-isoindol-2-yl]-methanone L-lactate salt]", "values": [{"measurement": "hygroscopicity", "setting": "[4]", "value": "non-hygroscopic"}, {"measurement": "rate of solubility", "setting": "[4]; compared with free base and hydrochloric and sulphuric acid salts", "value": "better rate of solubility than the free base and other salts tested"}]}
